{"source": "patent US11110195B2", "about": "“Esculentin 1a derivatives and uses thereof” (University of Houston System, priority 2013, dated 2021)", "key": {"[1]": {"assay": "in vitro", "details": "human, human telomerase immortalized corneal epithelial cells", "procedure": "(§1) Human corneal epithelial cells were incubated with varying concentrations of Esc-1a(1-21)NH2 for 24 hrs then cytotoxicity determined by MTT assay. Data are the mean of 3 independent experiments.\n(§2) To determine the toxicity of Esc-1a(1-21)NH2 to human telomerase immortalized corneal epithelial cells, the following experiment was performed. The MTT (3-(4,5-Dimethylthiazole-2-yl)-2,5-diphenyltetrazolium bromide) assay measures the activity of enzymes that reduce the tetrazolium blue dye to a formazan salt. Mitochondrial reductase enzymes will reduce MTT to formazan, which can be visualized by colorimetric reaction the absorbance of which can be quantified.\n(§3) MTT assay was performed on human telomerase immortalized corneal epithelial cells treated with different concentrations of the peptide for 24 hrs. The test was performed in triplicate or quadruplicate wells with concentrations of the peptide of up to 100 μM using the following protocol. On day 1, plated the telomerase immortalized epithelial cells at 10,000 cells/well in a 96 well plate. Incubated the plate at 37° C. for […] to allow the cells to attach to the plate and spread. On day 2, incubated the cells in serum free media for at least 6 hrs prior to peptide treatment. On day 3, stimulated the cells with 100, 50, 25, 10, 5, 1, 0.5 and 0.1 μM Esc-1a(1-21)NH2 in quadruplicate for 24 hrs. On day 4, added 50 μl of 0.02% Benzalkonium chloride into 4 wells as a positive control for 15 minutes. Added 50 μl of serum free media into all the other wells (total volume 100 μl). Added 10 μl of MTT stock solution into each of the well. Incubated at 37° C. for 3 hours. At the end of 3 hours purple crystals were visible under the microscope. Added 100 μl of stop solution into each well using a multichannel pipette. Pipetted up and down to dissolve all the crystals. Gently popped the bubbles using a 10 μl tip. Read plate using plate reader at 590 nm abs and 635 nm reference. Subtracted reference OD value (635) from 590 OD value and plotted graph."}, "[2]": {"test_system": "human telomerase immortalized corneal epithelial cells", "assay": "in vitro", "details": "24 hrs", "procedure": "as §1, §2, §3"}, "[3]": {"test_system": "A. castellani (ATCC 50370) trophozoites", "assay": "Acanthamoeba viability, ethidium homodimer-1 time lapse microscopy", "format": "cell-based, Acanthamoeba castellani", "procedure": "FIGS. 8A-8D show the effect of Esc-1a(1-21)NH2 on the viability of Acanthamoeba castellani. The amoeba were seeded in to chamber slides, then a fluorescent viability dye (ethidium homodimer-1) and 500 μg/ml Esc-1a(1-21)NH2 added. The amoebas were viewed by time lapse microscopy in an environmental chamber for 6 hours. Images are from before peptide addition at time zero in healthy trophozoites (FIG. 8A), then 10 minutes (FIG. 8B), 2 hours (FIG. 8C) and 6 hours (FIG. 8D) post addition of peptide Esc-1a(1-21)NH2. […] Significant amounts of debris accumulated over time indicating rupture of the cells.\n1×10^4 A. castellani (ATCC 50370) trophozoites in PYG 712 growth medium were transferred to coverglass chamber slides and allowed to attach overnight. The cells were then incubated with PYG 712 medium containing a 1:100 dilution of ethidium homodimer-1 (EthD-1) for 15 minutes at room temperature. EthD-1 is a cell-impermeant viability indicator dye that is taken up by cells with a compromised plasma membrane and fluoresces red/orange when bound to DNA. Serial brightfield and fluorescence images were taken using a DeltaVision Spectris Core fluorescence microscope every 3 minutes for 30 minutes to visualize cellular health prior to addition of Esc-1a(1-21)NH2. The medium was then replaced with 200 μl growth media containing 125, 250 or 500 μg/ml Esc-1a(1-21)NH2 and 1:100 diluted ethidium homodimer-1. Brightfield and fluorescence images were taken every 3 minutes for another 6 hours. Serial images were compiled together using Softworx software (Applied Precision) to generate time-lapse videos."}, "[4]": {"test_system": "A549 lung epithelial cells", "assay": "Wound healing assay, A549 lung epithelial cells", "format": "cell-based, human", "details": "A549 monolayer", "procedure": "The percentage of cell-covered area at each time point is reported on the y-axis. Control (Ctrl) represents cells not treated with the peptides. All data are the mean of at least three independent experiments ±SEM. […] Both peptides were able to stimulate the closure of the gap produced in the monolayer of A549 cells, with the optimal concentration allowing the almost complete coverage of the wound field equal to 10 μM (for the wild type peptide, FIG. 13A) or 4 μM (for the diastereomer, FIG. 13B) within approximately 24 hours or 20 hours, respectively.\nAs shown in FIGS. 13A-13B, Esc-1a(1-21)NH2 and its diastereomer both stimulated wound closure although at concentrations much higher than were required to induce a similar effect in human corneal epithelial cells. This may reflect cell specific differences."}, "[5]": {"assay": "in vitro", "details": "for Peptide Amount (%): 24 h, 37° C.; for remaining at 5 h, 0.575 mM / remaining at 24 h, 0.575 mM: human", "procedure": "A total of 125 μl of a 0.92 mM solution of each peptide was incubated at 37° C. with 20 μl and 60 μl human serum. Samples were collected after 5 h and 24 h of incubation, precipitated with 200 μl methanol, and centrifuged for 2 min at 10,000 g.\nThe crude solution was then analyzed by high-performance liquid chromatography (HPLC) and mass spectrometry. HPLC was performed with a Vydac C18 column, and the crude solution was diluted 5 times with 0.1% trifluoroacetic acid before injection and monitored at 280 nm."}, "[6]": {"test_system": "P. aeruginosa ATCC 27853", "details": "soluble free form, 1 μM, within 20 minutes in PBS"}}, "note": "Residues, ends and D or L forms follow the SMILES beside them.", "data": [{"smiles": "CC[C@H](C)[C@H](NC(=O)CN)C(=O)N[C@@H](Cc1ccccc1)C(=O)N[C@@H](CO)C(=O)N[C@@H](CCCCN)C(=O)N[C@@H](CC(C)C)C(=O)N[C@@H](C)C(=O)NCC(=O)N[C@@H](CCCCN)C(=O)N[C@@H](CCCCN)C(=O)N[C@H](C(=O)N[C@@H](CCCCN)C(=O)N[C@@H](CC(N)=O)C(=O)N[C@@H](CC(C)C)C(=O)N[C@@H](CC(C)C)C(=O)N[C@H](C(=O)N[C@@H](CO)C(=O)NCC(=O)N[C@@H](CC(C)C)C(=O)N[C@@H](CCCCN)C(=O)NCC(N)=O)[C@@H](C)CC)[C@@H](C)CC", "note": "[Esc-1a(1-21)NH2] (H-GIFSKLAGKKIKNLLISGLKG-NH2; N-terminus assumed)", "values": [{"measurement": "viability at 24 h, 50 µM", "setting": "[1]", "value": 75.7, "unit": "%"}, {"measurement": "viability at 24 h, 100 µM", "setting": "[1]", "value": 17.4, "unit": "%"}, {"measurement": "concentrations significantly cytotoxic", "setting": "[2]; MTT (FIG. 4)", "value": "above 50 μM"}, {"measurement": "toxicity to the cells", "setting": "[2]; concentration below 50 μM", "value": "not toxic"}, {"measurement": "trophozoites stained positively with EthD-1", "setting": "[3]; 125 μg/ml, 6 hours", "value": "approximately 67%"}, {"measurement": "trophozoites stained positively with EthD-1", "setting": "[3]; 250 μg/ml, 10 minutes", "value": "approximately 82%"}, {"measurement": "trophozoites stained positively with EthD-1", "setting": "[3]; 250 μg/ml, 6 hours", "value": "~100", "unit": "%"}, {"measurement": "time until orange/red fluorescence (dead/dying cells) detected", "setting": "[3]; 500 μg/ml", "value": "≤ 10", "unit": "min"}, {"measurement": "optimal concentration allowing almost complete coverage of the wound field", "setting": "[4]", "value": 10, "unit": "µM"}, {"measurement": "time to almost complete coverage of the wound field", "setting": "[4]; at optimal concentration", "value": "approximately 24 hours"}, {"measurement": "Peptide Amount (%)", "setting": "[5]; 10% human fresh serum", "value": "approximately 22.19%"}, {"measurement": "Peptide Amount (%)", "setting": "[5]; 30% human fresh serum", "value": "~11.5", "unit": "%"}, {"measurement": "remaining at 5 h, 0.575 mM", "setting": "[5]; 10% human fresh serum", "value": 44.4, "unit": "%"}, {"measurement": "remaining at 24 h, 0.575 mM", "setting": "[5]; 10% human fresh serum", "value": 22.2, "unit": "%"}, {"measurement": "remaining at 5 h, 0.575 mM", "setting": "[5]; 30% human fresh serum", "value": 20.9, "unit": "%"}, {"measurement": "remaining at 24 h, 0.575 mM", "setting": "[5]; 30% human fresh serum", "value": 11.5, "unit": "%"}, {"measurement": "killing", "setting": "[6]", "value": "~99.9", "unit": "%"}]}]}
